The source of these data is patent EP0751768B1, “ANTI-VIRAL AND ANTI-CANCER AGENT” (Radopath Pharmaceuticals International Limited, priority 1994, dated 1995).

The test system of one series is B16F1-murine melanoma. The format is in vivo.
In another series the test system is HIV-I IIIB. Nature of the series: Acute infection assay, HIV core antigen ELISA (HIV-I IIIB). The format is cell-based. (ELISA stands for enzyme-linked immunosorbent assay.)
The test system of series [1] is MAC15A (murine adenocarcinoma colon). The format is in vivo, NMR1 mice.
The test system of a further series is HIV-1RF. Put plainly: microbe, parasite or virus in culture. The class given is cell-based, human immunodeficiency virus HIV-1RF. The note with it: read-out: IC50.
A short description of another series: in vitro. The following applies: CC50 (Toxicity), listed under Against HIV-I IIIB; single determinations.
Series [2] relates to M5076-reticulum cell sarcoma. Put plainly: Anti-tumour activity against M5076 solid tumour (tumour weight inhibition). The class given is in vivo, murine. As to the method: The in vivo anti-tumour responses of the compound according to the invention were assessed against the ascitic tumours, MAC15A murine colon adenocarcinoma and various solid tumour models. The MAC15A ascites tumour cells were transplanted into male NMR1 mice by ip innoculation at a cell density of 1 x 10^5 cells in 200µl buffer (Table I). The solid tumour models included the MAC13 and MAC16 murine colon adenocarcinomas, the B16 F1 murine melanoma and the M5076 reticulum cell sarcoma.
Treatment commenced 3 days after ip transplant or, in the case of solid tumours such as MAC13 and MAC16, treatment commenced when average tumour volumes reached 40mm^3.
The animals were located in both cases into groups of 5 to 8 animals.
The animals were sacrificed after 12 days or when tumours ulcerated, tumour volume exceeded 1000mm^3 or loss of body weight exceeded 50%.
Except where otherwise stated, the compound used was dissolved in DMSO and diluted in sterile distilled water, at appropriate concentrations before administration in a solvent volume of 200µl. Anti-tumour responses were obtained by comparing the median survival times or tumour growth inhibition against solvent controls.
% Tumour Weight Inhibition:-

Setting [3] is: read-out: CC50 (Toxicity), Average, listed under Against HIV-I IIIB, average of the lines above.
Setting [4] is: read-out: CC50 (Toxicity), listed under Against HIV-I IIIB, single determinations.
Where [5] appears, read: Against HIV-I IIIB, average of the lines above, read-out: IC50 (Antiviral), Average.
The mark [6] stands for this setting: Against HIV-I IIIB, single determinations, read-out: IC50 (Antiviral).
Where [7] appears, read: 100mg kg^-1 ip per day, schedule days 1,2,3,4,5, median, T-test group, C-solvent control, 5 animals per group.
The mark [8] stands for this setting: control compounds in infected cells.

Where “and” joins values, the source holds several entries; their conditions need not be identical. Identical values can stand only once. Like-named read-outs stand apart in the source and are kept apart here.

Consider `O=C(O)c1cc([N+](=O)[O-])c(Cl)c([N+](=O)[O-])c1` [C4, 4-chloro-3,5-dinitrobenzoic acid], for which, in the series on uninfected cells (Table 7, 50% inhibition of cells by 14C protein hydrolysate uptake), the CD50 is listed as 70µm. In addition, the CC50 (as a rule, the concentration that lowers cell viability or growth by half) in the series with uninfected cells (setting [3]) was 85 µM; in the series on uninfected cells (setting [4]) it was 100 µM and 70 µM. Besides, the “% Tumour Weight Inhibition” value is 10% with B16F1-murine melanoma (50 mg/kg per day ip, days 1,5, 12 days after sc transplant, corn oil); 41% with B16F1-murine melanoma (75 mg/kg per day ip, days 1,5, 12 days after sc transplant, corn oil); 39% with B16F1-murine melanoma (100 mg/kg per day ip, days 1,5, 12 days after sc transplant, corn oil). The IC50 (in general, the concentration needed to halve the response being measured) with HIV-I IIIB (setting [5]) is 35 µM; with HIV-I IIIB (setting [6]), 40 µM and 30 µM; in the series with HIV-1RF (Table 7, 50% reduction in HIV core antigen levels, 72 hours post-infection), 30 µM. The same compound came in with a T/C% in series [1] (setting [7]) of 271%.
On to `CC(C)(C)NC(=O)[C@@H]1C[C@@H]2CCCC[C@@H]2CN1C[C@@H](O)[C@H](Cc1ccccc1)NC(=O)[C@H](CC(N)=O)NC(=O)c1ccc2ccccc2n1` [compound 8959], for which, in the series on HIV-1RF (setting [8]), the IC50 worked out at 0.001 µM.
In the series with uninfected cells, `COC(=O)c1cc([N+](=O)[O-])c(Cl)c([N+](=O)[O-])c1` [C6, 4-chloro-3,5-dinitrobenzoic acid methyl ester] yielded a CC50 of 60 µM. The “% Tumour Weight Inhibition” value in the series with B16F1-murine melanoma (mouse, in vivo) was 67% and 43%. The “SI (Selectivity Index)” value with HIV-I IIIB is given as 12.
In the series on uninfected cells, `O=C(O)c1ccc(Cl)c(Cl)c1` [C11, 3,4-dichlorobenzoic acid] showed a CC50 above 200 µM.
As to `O=C(O)c1cc([N+](=O)[O-])cc([N+](=O)[O-])c1` [C29, 3,5-dinitrobenzoic acid], the T/C% in series [1] (setting [7]) is 100%.
`COC(=O)c1cc([N+](=O)[O-])cc([N+](=O)[O-])c1Cl` [C8, 2-chloro-3,5-dinitrobenzoic acid methyl ester] came in with a CC50 in the series on uninfected cells of 60 µM. In the series on HIV-I IIIB, the “SI (Selectivity Index)” value was 5.
Consider `O=C(O)c1cc(Cl)ccc1Cl` [C12, 2,5-dichlorobenzoic acid], for which the CC50 with uninfected cells was above 200 µM. In addition, the concentration for half-maximal inhibition (IC50) in the series on HIV-I IIIB (Human immunodeficiency virus 1, IIIB, read-out: IC50 (Antiviral)) was above 200 µM. In series [1] (mouse, in vivo, ip), this compound had a T/C% of 171%.
As for `O=C(O)c1ccc([N+](=O)[O-])cc1[N+](=O)[O-]` [C28, 2,4-dinitrobenzoic acid], the T/C% in series [1] (setting [7]) is 100%.
On to `NC(=O)c1cc([N+](=O)[O-])c(Cl)c([N+](=O)[O-])c1` [C5], for which the CC50 with uninfected cells (setting [4]) was found to be 50 µM. The concentration for half-maximal inhibition (IC50) in the series on HIV-I IIIB (setting [6]) stood at 5 µM.
Take `O=C(O)c1cc([N+](=O)[O-])cc([N+](=O)[O-])c1Cl` [C7, 2-chloro-3,5-dinitrobenzoic acid]: in the series on uninfected cells (setting [3]), the CC50 is above 175 µM. Also, the half-maximal inhibitory concentration (IC50) in the series on HIV-I IIIB (setting [5]) was 22 µM. The compound further showed a 50% cytotoxic concentration (CC50) at 72 h in the series “in vitro” of 35 µM.
Consider `O=C(O)c1ccc(Cl)c([N+](=O)[O-])c1` [C9, 4-chloro-3-nitrobenzoic acid], for which, in the series with uninfected cells, the CC50 was above 200 µM.
Regarding `NC(=O)c1cc([N+](=O)[O-])c(Cl)c([N+](=O)[O-])c1Cl` [C2], in the series with uninfected cells (setting [4]), the CC50 came to 70 µM. Moreover, in the series on HIV-I IIIB (setting [6]), the IC50 was 2 µM.
As for `Cc1cn([C@H]2C[C@H](N=[N+]=[N-])[C@@H](CO)O2)c(=O)[nH]c1=O` [AZT], the 50% inhibitory concentration (IC50) in the series with HIV-1RF was 0.01 µM and 0.02 µM.
Consider `Nc1ccn([C@H]2CC[C@@H](CO)O2)c(=O)n1` [ddC], for which the IC50 with HIV-1RF (setting [8]) came out at 0.2 µM.
With `O=C(O)c1ccc([N+](=O)[O-])cc1Cl` [C10, 2-chloro-4-nitrobenzoic acid], in the series with uninfected cells, the CC50 is above 200 µM.
As for `NC(=O)c1cc([N+](=O)[O-])c(Cl)c([N+](=O)[O-])c1Cl` [the amide], the “anti-tumour activity (in words)” value in series [2] is reported as “without anti-tumour activity”. Moreover, the increase in toxicity in series [2] (relative to 2,4-dichloro-3,5-dinitrobenzoic acid) came out at 10 fold.
